US11253495B2, “Pharmaceutical composition for treating excessive lactate production and acidemia” (priority 2018, dated 2022)

What was measured:
phenformin intoxication = test: Phenformin intoxication and severe lactate acidemia in mice: survival time, serum lactate, serum pH; assay type: in vivo, CD-1 mice; conditions: doses of Table 4, vs G1 saline; for Serum lactate at 1 hour after phenformin intoxication: FIG. 14, combination vs single agent; for Serum pH value at 1 hour after phenformin intoxication: FIG. 15
Experimental: CD-1 mice (20-25 gram) were used. All mice were pre-treated according to the Table 4.
10 minutes after treatment, intoxication of severe lactate acidemia was induced by injecting phenformin chloride (concentration 20 mg/ml) at dose of 200 mg/kg intraperitoneally. At 1 hour after phenformin injection, serum lactate and pH were measured.

[1] = tested on: focal cerebral ischemia rat model; test: Focal cerebral ischemia rat model (3 h MCA occlusion, 21 h reperfusion): behavioral deficit, infarct size, serum lactate, brain ATP; assay type: in vivo; conditions: FIG. 10; 24 hours after ischemia; vs G1 saline; combination vs single agent
Experimental: 180-230 g CD rats were used. Ketamine/xylazine 30 mg/kg ip was given for anesthesia in each rat. A midline incision on the neck was made. The left common carotid artery, the external carotid artery (ECA) and the internal carotid artery (ICA) were exposed. The ECA was ligated and severed. Focal cerebral ischemia was produced by a 3.0 nylon suture that was advanced from the ECA to ICA to block the origin of left middle cerebral artery. The nylon suture was left in place to induce focal cerebral ischemia on left hemisphere supplied by middle cerebral artery. The ischemia lasted for 3 hours, the nylon suture was then removed to allow blood reperfusion for 21 hours.
This treatment time point is one hour before restoring blood flow (reperfusion).
At 24 hours after cerebral ischemia, each rat was evaluated for behavioral deficits. A score of 0-4 was used to assess the motor and behavioral changes. Score 0: No apparent deficits, Score 1: Contralateral forelimb flexion, Score 2: Decreased grip of the contralateral forelimb when the tail is pulled, Score 3: Spontaneous movement in all directions; contralateral circling only if pulled by tail and Score 4: Spontaneous contralateral circling.
At 24 hours after ischemia, blood samples were collected, serum lactate, was measured using blood chemistry analyzer. LDH was measured using colorimetric method.
After blood samples collection, each rat was euthanized. The brain was excised. A small piece of the cortex in ischemic core was obtained, weighed and then homogenized at 0° C. The ATP content was evaluated using ATP content measurement using luciferase-luciferin luminescence detection assay.
Each brain was immediately cut into 6 coronal sections (1 mm in thickness) and stained with 1% 2,3,5-triphenyltetrazolium chloride (TTC) in PBS solution at 37° C. for 10 minutes. The infarct size was identified as the non-TTC-stained area, the infarction percentage (%) was calculated by the ratio of area of infarction size to area of whole brain.

cardiac arrest rat model = test: Cardiac arrest rat model with CPR: mortality, brain death score, serum lactate and pH, organ ATP; assay type: in vivo; conditions: for Serum lactate: FIG. 2, 24 hours after ROSC or right before death, vs G1 saline, combination vs single agent; for Mortality at 24 hours after ROSC: rats, 7 min cardiac arrest, iv treatment 10 minutes after ROSC, doses of Table 1, n=8 each group

| SMILES | Serum lactate at 1 hour after phenformin intoxication (phenformin intoxication) | Serum lactate content [1] | Serum lactate (cardiac arrest rat model) | Serum pH value at 1 hour after phenformin intoxication (phenformin intoxication) | Mortality at 24 hours after ROSC (cardiac arrest rat model) |
| --- | --- | --- | --- | --- | --- |
| N#Cc1cc(NC(=O)C(=O)O)c(Cl)c(NC(=O)C(=O)O)c1.NC(CO)(CO)CO.NC(CO)(CO)CO [Lodoxamide tromethamine] | reduce lactate production | – | – | – | – |
| Cc1ncc(COP(=O)(O)O)c(C=O)c1O [PLP, pyridoxal 5′-phosphate] | reduce lactate production | reduce lactate production | reduce lactate production | – | – |
| N[C@@H](CCC(=O)[O-])C(=O)[O-].[Na+].[Na+] [Sodium glutamate] | reduce lactate production | reduce lactate production | reduce lactate production | particularly effective | 1 out of 8 |
| NC(=O)C(=O)[O-].[Na+] [Sodium oxamate] | reduce lactate production | reduce lactate production | reduce lactate production | – | 1 out of 8 |
| O=C([O-])CC(=O)C(=O)O.[Na+] [oxaloacetate, Sodium oxaloacetate] | reduce lactate production | reduce lactate production | reduce lactate production | – | – |
| N[C@@H](CC(=O)[O-])C(=O)[O-].[Na+].[Na+] [sodium aspartate, Sodium Aspartate] | reduce lactate production | reduce lactate production | reduce lactate production | particularly effective | – |
